Results: patent US20100075907A1, “NEUROMEDIN U RECEPTOR AGONISTS AND USES THEREOF” (priority 2006, published 2010)
Non-standard residues stand in square brackets, D forms with d. Residues, ends and D or L forms follow the SMILES beside them. hArg = N=C(N)NCCCC[C@H](N)C(=O)O; dNle = CCCC[C@@H](N)C(=O)O

Columns and labels:
hNMUR2 [1] = biological target: T1, hNMUR2 (Homo sapiens, UniProt Q9GZQ4); test: In vitro functional assay, HEK-hR2 cells; format: cell-based; parameters: expressed in transfected cells; host or cells: FLP-In CHO or HEK-293 FLP-In cells (pcDNA5); HEK-293/aeq17 lines (pcDNA3.1) were also made; % Activity: concentration or dose not given beside the values
Source text: Human, mouse or rat cDNAs encoding NMUR1 or NMUR2 (as described in Howard et al. Nature 406: 70-74 (2000) were subcloned in pcDNA5 (Invitrogen) and transfected into FLP-In CHO cells and HEK-293 FLP-In cells purchased from Invitrogen (Carlsbad, Calif.) using lipofectamine (Invitrogen). The Flp-In system allows integration and expression of a particular gene of interest at a specific genomic location utilizing the Flp recombinase from yeast. The transfected cells were selected by growth in medium containing 200 μg/mL hygromycin (Invitrogen). Populations were frozen at early passage numbers, and these stocks were used for further studies. Stable clones that expressed the mRNAs were identified functionally by FLIPR as well as by RT-PCR. […] Two different rodent NMUR1 cell lines were thus generated: one with the codon as predicted from the genomic databases and another cell line with an engineered methionine (ATG) as the start codon. Additionally, stable cell lines expressing the human receptors were generated in HEK-293/aeq17 cells which stably express the aequorin gene under the CMV promoter. The human NMUR2 cDNA was cloned into pcDNA3.1 and human NMUR1 was subcloned into pIRES-puro (Clontech, Mountain View, Calif.), after transfection cells were selected in media containing G418 and either hygromycin (NMUR2) or puromycin (NMUR1).
The NMU receptors signal primarily through Gαq/11 proteins; therefore calcium mobilization assays can be utilized for functional activity.
Stable cell lines expressing human and or rodent NMUR1 or human NMUR2 receptors were plated at a density of 12,000 cells per well overnight on poly-lysine coated 384-well black-walled plates. The following day, the media was removed from the plates and the cells were subsequently loaded with Fluo-3 (Molecular Probes), a calcium sensitive dye, diluted in FLIPR buffer (1× Hank's buffered saline containing 20 mM HEPES, 0.1% BSA, 2.5 mM probenecid (Sigma) and 1.6 mM TR40). All reagents are from Invitrogen unless otherwise noted. Peptide stocks were resuspended in DMSO at a stock concentration of 2 mM and diluted in FLIPR buffer on the day of the experiment to a 4 μM working stock solution.
After a 90 minute incubation at room-temperature, cell plates were loaded onto a FLIPR (Molecular Devices) to monitor cellular fluorescence (excitation=488 nm; emission=540 nm) before and after compound/peptide addition. Eight to twelve point dose responses were tested on NMUR-expressing cell lines using FLIPR with 1 μM peptide as the highest dose. The response after peptide addition was taken as the maximum fluorescence units minus the fluorescence immediately prior to stimulation for each well. EC50 values were calculated using GraphPad Prism (San Diego, Calif.) software.
In addition to FLIPR, NMU receptor function can also be evaluated using an aequorin assay. Stable cell lines expressing the aequorin jelly fish gene can be used to report the activation of GPCRs by monitoring intracellular calcium mobilization. The objective is to identify compounds which specifically stimulate aequorin bioluminescence. Calcium-dependent luminescence is generated by the treatment of cells with the coelenterate luciferin, coelenterazine. Briefly, confluent monolayers of HEK-293/aeq 17 cells expressing hNMUR1 or hNMUR2 are “charged” with coelenterazine (Molecular Probes, Carlsbad, Calif.). Confluent T75 flasks are rinsed with media containing 300 μM glutathione and 0.1% FBS. Cells are incubated at 37° C. for one hour in 8 mL media, 0.1% FBS, 300 μM glutathione, and 20 μM coelenterazine. T75 flasks are subsequently rinsed with 6 mL ECB buffer (140 mM NaCl, 20 mM KCl, 20 mM HEPES, 5 mM glucose, 1 mM MgCl, 1 mM CaCl2, 0.1 mg/mL BSA, PH 7.3-7.4). Cells are removed from the flask in ECB buffer, pelleted, and resuspended at a density of 2×10^5 cells/mL. Agonists are added to the cells and activity is determined using a luminometer.

hNMUR2 [2] = biological target: T1, hNMUR2; test: 125I-hNMU-25 binding assay, human NMUR2 membranes; parameters: expressed in transfected cells; host or cells: HEK-293 FLP-In cells (pcDNA5); HEK-293/aeq17 lines (pcDNA3.1) were also made; % inhibition of NMU-25 binding / % Activity: concentration or dose not given beside the values
Protocol: Confluent cell monolayers expressing NMU receptors (the HEK cells described above) were harvested with phosphate buffered saline, collected by centrifugation, and resuspended in membrane buffer (50 mM TrisCl pH 7.4, 5 mM MgCl2, 1× Protease Inhibitor Cocktail, 10 μM phosphoramidon). After the cell pellet was homogenized, the solution was centrifuged at 18,000 rpm for 20 minutes at 4° C. The pellet was resuspended in membrane buffer to yield a final concentration of 0.5-5 μg/μL of membrane and stored at −80° C.
Experiments were performed in assay buffer (25 mM TrisCl, pH 7.4, 10 mM MgCl2, 2 mM EDTA, 1× Protease Inhibitor Cocktail, 100 μg/mL Bacitricin, 10 μM phosphoramidon) in 200 μL volumes in a 96-well format using 2-5 μg of membrane and 0.1 nM ^125I-hNMU-25 (about 12,000 cpm/well). For non-specific binding, 1 μM hNMU-25 was added. About 5 μL of peptides were added to measure antagonist activity, and the entire reaction was incubated at room temperature with shaking for 80 minutes. The reaction was terminated by rapid filtration through 0.3% poly-ethylenimine presoaked Millipore 96-well filter plates and washed with ice-cold buffer (5 mM TrisCl pH 7.4, 10 mM MgCl2, 2.5 mM EDTA, 0.04% Triton X-100). Plates were air-dried overnight at room temperature and recovered radioactivity was determined by standard scintillation counting. IC50 values were determined using GraphPad Prism software.
Concentration-response curves and radioligand-binding data were fitted using Prism (GraphPad Software). Results are summarized below in Tables 8 and 9.

T1 sequence (Q9GZQ4 whole entry): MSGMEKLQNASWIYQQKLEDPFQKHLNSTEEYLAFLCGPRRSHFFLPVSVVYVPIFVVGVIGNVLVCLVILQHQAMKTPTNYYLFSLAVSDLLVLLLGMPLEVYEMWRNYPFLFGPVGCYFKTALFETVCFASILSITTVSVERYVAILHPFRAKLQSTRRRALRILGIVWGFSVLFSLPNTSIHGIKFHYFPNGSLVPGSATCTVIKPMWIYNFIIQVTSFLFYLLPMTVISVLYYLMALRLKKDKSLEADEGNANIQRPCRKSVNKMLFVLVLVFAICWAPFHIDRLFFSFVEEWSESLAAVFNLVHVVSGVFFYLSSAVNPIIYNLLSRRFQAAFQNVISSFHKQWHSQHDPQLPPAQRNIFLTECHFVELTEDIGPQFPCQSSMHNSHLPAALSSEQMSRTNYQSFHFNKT

Compound | % Activity (hNMUR2 [1]; Table 8, HEK-hR2, functional) | IC50 (hNMUR2 [1]; Table 8, HEK-hR2, functional) | % Activity (hNMUR2 [2]; Table 8, HEK-hR2, binding) | IC50 (hNMUR2 [2]; Table 8, HEK-hR2, binding) | % Activity (hNMUR2 [1]; Table 9, HEK-hR2, functional) | % Activity (hNMUR2 [2]; Table 9, HEK-hR2, binding) | IC50 (hNMUR2 [2]; Table 9, HEK-hR2, binding) | EC50 (hNMUR2 [1]; Table 9, HEK-hR2, functional)
CC(C)C[C@@H](NC(=O)[C@H](Cc1ccccc1)NC(=O)[C@@H](N)Cc1ccc(O)cc1)C(=O)N[C@@H](Cc1c[nH]c2ccccc12)C(=O)N[C@@H](CCCNC(=N)N)C(=O)N1CCC[C@H]1C(=O)N[C@@H](CCCNC(=N)N)C(=O)N[C@@H](CC(N)=O)C(N)=O [Agonist B, YF-(D-L)-WRPRN-CONH2] (H-YF[dL]WRPRN-NH2) | 0% | > 1000 nM | 35% | > 1000 nM | – | – | – | –
C[C@@H](NC(=O)[C@H](Cc1ccccc1)NC(=O)[C@@H](N)Cc1ccc(O)cc1)C(=O)N[C@@H](Cc1c[nH]c2ccccc12)C(=O)N[C@@H](CCCNC(=N)N)C(=O)N1CCC[C@H]1C(=O)N[C@@H](CCCNC(=N)N)C(=O)N[C@@H](CC(N)=O)C(N)=O [Agonist D, YF-(D-A)-WRPRN-CONH2] (H-YF[dA]WRPRN-NH2; N-terminus assumed) | 0% | > 1000 nM | 0% | > 1000 nM | – | – | – | –
CC(=O)N[C@@H](Cc1ccccc1)C(=O)N[C@H](CC(C)C)C(=O)N[C@@H](Cc1c[nH]c2ccccc12)C(=O)N[C@@H](CCCNC(=N)N)C(=O)N1CCC[C@H]1C(=O)N[C@@H](CCCNC(=N)N)C(=O)N[C@@H](CC(N)=O)C(N)=O [Agonist E, Ac-F-(D-L)-WRPRN-CONH2] (Ac-F[dL]WRPRN-NH2) | 1.8% | > 1000 nM | 5% | > 1000 nM | – | – | – | –
CC(C)C[C@H](NC(=O)[C@H](Cc1c[nH]c2ccccc12)NC(=O)[C@@H](N)Cc1ccccc1)C(=O)N[C@@H](Cc1ccccc1)C(=O)N[C@@H](CCCNC(=N)N)C(=O)N1CCC[C@H]1C(=O)N[C@@H](CCCCNC(=N)N)C(=O)N[C@@H](CC(N)=O)C(N)=O [Agonist I, FWLFRP-(Harg)-N-CONH2] (H-FWLFRP[hArg]N-NH2) | – | – | – | – | 99% | 90% | – | –
CC(C)C[C@H](NC(=O)[C@H](Cc1c[nH]c2ccccc12)NC(=O)[C@@H](N)Cc1ccccc1)C(=O)N[C@@H](Cc1ccccc1)C(=O)N[C@@H](CCCNC(=N)N)C(=O)N[C@@H](C)C(=O)N[C@@H](CCCCNC(=N)N)C(=O)N[C@@H](CC(N)=O)C(N)=O [Agonist J, FWLFRA-(Harg)-N-CONH2] (H-FWLFRA[hArg]N-NH2) | – | – | – | – | 59% | 63% | 150 nM | –
CCCC[C@@H](NC(=O)[C@H](CCCNC(=N)N)NC(=O)[C@H](C)NC(=O)[C@H](CCCNC(=N)N)NC(=O)[C@H](Cc1ccccc1)NC(=O)[C@H](CC(C)C)NC(=O)[C@H](Cc1ccccc1)NC(=O)[C@@H](N)Cc1c[nH]c2ccccc12)C(N)=O [Agonist K, WFLFRAR-(D-Nle)-CONH2] (H-WFLFRAR[dNle]-NH2) | – | – | – | – | 100% | 100% | – | 2 nM
CC(C)C[C@H](NC(=O)[C@H](Cc1c[nH]c2ccccc12)NC(=O)[C@H](Cc1ccccc1)NC(=O)CNC(=O)[C@H](CCCNC(=N)N)NC(=O)[C@H](CO)NC(=O)[C@H](CCC(N)=O)NC(=O)[C@H](CO)NC(=O)[C@H](C)NC(=O)[C@H](Cc1ccccc1)NC(=O)[C@@H]1CCCN1C(=O)[C@H](CO)NC(=O)[C@H](CCC(N)=O)NC(=O)[C@H](Cc1ccccc1)NC(=O)[C@H](CCC(=O)O)NC(=O)[C@H](CCC(=O)O)NC(=O)[C@H](CC(=O)O)NC(=O)[C@@H](NC(=O)[C@H](CCCNC(=N)N)NC(=O)[C@@H](N)Cc1ccccc1)C(C)C)C(=O)N[C@@H](Cc1ccccc1)C(=O)N[C@@H](CCCNC(=N)N)C(=O)N1CCC[C@H]1C(=O)N[C@@H](CCCCNC(=N)N)C(=O)N[C@@H](CC(N)=O)C(N)=O [Agonist O] (H-FRVDEEFQSPFASQSRGFWLFRP[hArg]N-NH2; N-terminus assumed) | – | – | – | – | 67% | 92% | 3 nM | 16 nM
